# Test results: paper PMC6355809, “Proteinaceous Nano container Encapsulate Polycyclic Aromatic Hydrocarbons” (Scientific Reports, 2019)
# Experiments:
# [1] = target: T1, RHCC-NT (Staphylothermus marinus, UniProt Q54436); assay: Time-scale binding assay (uptake of PAH by RHCC-NT, fluorescence); conditions: for time to reach equilibrium: under the conditions of the pyrene time-scale study (10 °C), data not shown; for Py-value (ratio of fluorescence emission intensities of Band I/III): 2 µM pyrene, 70 µM RHCC
# Description: To probe the uptake kinetics of low MW PAHs, we examined the fluorescence characteristics of pyrene in solvent in comparison to RHCC-NT bound pyrene (Fig. 4). As the bulkiest of the PAHs tested, it is expected that pyrene provides an upper bound on the equilibration time of these low MW PAHs. We took advantage of the major vibronic bands (I and III) of pyrene with defined peaks at ~373 and 384 nm[11],[12]. […] The ratio of the fluorescence emission intensities of Band I/III is defined as Py-value[13],[14] and can be employed to detect polarity in the vicinity of the probed microenvironment.
# The time-scale assay was set-up by addition of pyrene to a 35-fold molar excess of RHCC in 20 mM sodium phosphate solution buffered at pH 7 and adjusted to 150 mM ionic strength. Both solutions were equilibrated to 10 °C prior to the assay. Data was collected on a Fluorolog-3 Horiba Jobin Yvon Spectrofluorometer (Edison, NJ). Excitation wavelength was set to 334 nm; emission was monitored at 384 nm; excitation and emission slits were set to 1 nm band pass resolution. Temperature was kept at 10 °C and controlled with a water bath throughout the experiment. Data was acquired every 1 minute for the first 25 minutes, following by 30 minute intervals until fluorescence signal plateaued and equilibrium achieved.
# [2] = target: T1, RHCC-NT; assay: Fluorescence binding assay (steady-state titration of PAH with RHCC-NT); conditions: for ∆G, molar Gibbs free energy for the ligand binding: ∆G = RT ln (Kd); for binding to RHCC-NT / concentration dependent fluorescence changes: result in words; for Fluorescence intensity at 350 nm (λexc = 275 nm): 4 µM naphthalene
# Procedure: Fluorescence assays were used to examine the binding of RHCC-NT to PAHs as they allow discrimination between PAHs in solution and those bound to the RHCC-NT, as well as the ability to monitor PAH uptake as a function of time (Fig. 2). […] In order to minimize contributions from tyrosine fluorescence, the fluorescence emission at 350 nm was used to determine the binding affinity of naphthalene to RHCC-NT (Table 1).
# Initial binding screens were performed by titrating known amounts of a single PAH with varying amounts of RHCC-NT. All assays were performed in 20 mM sodium phosphate solution containing 1% ethanol buffered at pH 7 and adjusted to 150 mM ionic strength. All samples were prepared in triplicate to a final volume of 1 mL and were left to incubate overnight at 25 °C to ensure complete equilibration. PAH fluorescence was then measured as a function of RHCC-NT concentration. Steady-state fluorescence spectra were collected using Fluorolog-3 Horiba Jobin Yvon spectrofluorometer (Edison, NJ). Excitation wavelength was set to 275 nm for naphthalene, 300 nm for acenaphthene, 350 nm for anthracene, 334 nm for chrysene and pyrene, 290 nm for acenaphthylene and fluorene. Excitation and emission slits were set to 1 nm band pass resolution. All samples were measured at 20 °C in a 10 × 3 mm^2 quartz cuvette. The obtained fluorescence data was used to calculate the binding constant Kd assuming that each PAH binds to one of two equal bindings sites in the RHCC-NT, cavity 2 or 3. The fraction of PAH bound and the concentration of unbound RHCC-NT was determined based on the following equation:1 Fractionbound=y=F−F0/F∞−F0=Bmax[RHCCfree]/Kd+[RHCCfree] where F is the experimental fluorescence signal of each sample, F∞ is the fluorescence of the PAH at infinite protein concentration, F0 is the fluorescence of the free PAH in solution, Bmax is a constant and equal to 1. The y values thus obtained were plotted as a function of free RHCC concentrations. The plotted data were then fit to Equation (1) using Sigma Plot 13 (Point Richmond, CA), yielding the binding constant Kd for each PAH bound to RHCC-NT[27].
# [3] = system: RHCC-tetrabrachion; assay: GC-MS/MS uptake of PAHs; format: binding, Staphylothermus marinus; conditions: result in words
# [4] = set-up: method as in PMID 26626387; conditions: in kJ/mol; cited from earlier work
SMILES,time to reach equilibrium [1],Kd [2] [µM],"∆G, molar Gibbs free energy for the ligand binding [2] [kcal/mol]",uptake by RHCC-tetrabrachion [3],binding to RHCC-NT / concentration dependent fluorescence changes [2],"ΔGsolv, measured solvation free energy [4]",other results
"C1=Cc2cccc3cccc1c23 [Acenaphthylene, acenaphthylene]",ca. 1 min,32 ± 7,-6.09,,,,
c1ccc2cc3c(ccc4ccccc43)cc2c1 [benz(a)anthracene],,,,uptake,did not exhibit any concentration dependent fluorescence changes,,
c1ccc2c(c1)ccc1ccccc12 [phenanthrene],,,,uptake,did not exhibit any concentration dependent fluorescence changes,−16.2 ± 2.5,
"c1ccc2ccccc2c1 [Naphthalene, naphthalene]",ca. 1 min,17 ± 1.4,-6.48,,,−10.0 ± 2.5,Fluorescence intensity at 350 nm (λexc = 275 nm) ([2]; [RHCC] 0 µM): 708292; Fluorescence intensity at 350 nm (λexc = 275 nm) ([2]; [RHCC] 0.12 µM): 709824; Fluorescence intensity at 350 nm (λexc = 275 nm) ([2]; [RHCC] 0.24 µM): 730572; Fluorescence intensity at 350 nm (λexc = 275 nm) ([2]; [RHCC] 0.48 µM): 733694; Fluorescence intensity at 350 nm (λexc = 275 nm) ([2]; [RHCC] 0.96 µM): 780644; Fluorescence intensity at 350 nm (λexc = 275 nm) ([2]; [RHCC] 1.9 µM): 906120; Fluorescence intensity at 350 nm (λexc = 275 nm) ([2]; [RHCC] 3.8 µM): 1003650; Fluorescence intensity at 350 nm (λexc = 275 nm) ([2]; [RHCC] 7.7 µM): 1177910; Fluorescence intensity at 350 nm (λexc = 275 nm) ([2]; [RHCC] 15.4 µM): 1420260; Fluorescence intensity at 350 nm (λexc = 275 nm) ([2]; [RHCC] 30.75 µM): 1845910; Fluorescence intensity at 350 nm (λexc = 275 nm) ([2]; [RHCC] 61.5 µM): 1873130
"c1ccc2c(c1)ccc1c3ccccc3ccc21 [Chrysene, chrysene]",,27 ± 5.6,-6.19,,,,
c1ccc2c(c1)-c1cccc3cccc-2c13 [fluoranthene],,,,uptake,did not exhibit any concentration dependent fluorescence changes,,
"c1cc2c3c(cccc3c1)CC2 [Acenaphthene, acenaphthene]",ca. 1 min,8.9 ± 1.8,-6.84,,,,
"c1cc2ccc3cccc4ccc(c1)c2c34 [Pyrene, pyrene]",,30 ± 2,-6.12,,,−18.91 ± 2.5,"average uptake rate ([1]; 10 °C): 1.59 nmol/hr∙mol RHCC-NT; time for complete uptake by RHCC-NT ([1]; 10 °C, emission at 384 nm): around 80 hrs; Py-value (ratio of fluorescence emission intensities of Band I/III) ([1]; RHCC-NT:Pyrene time = 0, 10 °C): 1.7288; Py-value (ratio of fluorescence emission intensities of Band I/III) ([1]; RHCC-NT:Pyrene time = 75 hrs, 10 °C): 0.6395"
"c1ccc2c(c1)Cc1ccccc1-2 [Fluorene, fluorene]",,5.4 ± 1.6,-7.15,,,,
"c1ccc2cc3ccccc3cc2c1 [Anthracene, anthracene]",,8.7 ± 1.5,-6.86,,,,
